Measurements taken from patent US20230406831A1, “COMPOUNDS AND METHODS OF INHIBITING BACTERIAL CHAPERONIN SYSTEMS” (THE TRUSTEES OF INDIANA UNIVERSITY, priority 2020, published 2023).
Like-named read-outs stand apart in the source and are kept apart here.

How the values were obtained:
S. aureus = S. aureus bacterial proliferation assay; type: cell-based; details: cation adjusted BHI media, OD600 at 6-8 h; for EC50: Staphylococcus aureus, read-out: S. aureus Proliferation EC50
Protocol: Evaluation of compounds for inhibition of bacterial cell proliferation.
Growth Media: S. aureus bacteria were grown in Brain Heart Infusion (BHI) broth/agar (Becton, Dickinson and Company). All liquid cultures were grown in BHI media supplemented with 25 mg/L Ca^2+ and 12.5 mg/L Mg^2+ to mimic free physiological concentrations of these cations. A 10 mg/mL Ca^2+ stock solution was prepared by dissolving 3.68 g of CaCl2·2H^2O in 100 mL of deionized water, and a 10 mg/mL Mg^2+ stock solution was prepared by dissolving 8.36 g of […] in 100 mL deionized water. Both stock solutions were filter-sterilized using 0.2 μm pore size cellulose-acetate filters. 2.5 mL of the sterile 10 mg/mL Ca^2+ stock and 1.25 mL of the sterile 10 mg/mL Mg^2+ stock solutions were added per 1 L of autoclaved BHI medium to obtain 25 mg/L Ca^2+ and 12.5 mg/L Mg^2+ ions, respectively.
General Assay Protocol: Stock bacterial cultures were streaked onto BHI agar plates and grown overnight at 37° C. Fresh aliquots of broth were inoculated with single bacterial colonies and the cultures were grown overnight at 37° C. with shaking (240 rpm) in cation adjusted BHI media. The following morning, the overnight cultures were sub-cultured (1:5 dilution) into fresh aliquots of cation adjusted BHI media and grown at 37° C. for 1-2 hours with shaking. After 2 h, cultures were diluted into fresh media to achieve final OD600 readings of 0.017. Aliquots of these diluted cultures (30 μL) were added to clear, flat-bottom, 384-well polystyrene plates that were stamped with 0.5 μL of test compounds in 20 μL media. Compounds were evaluated in dose-response format where the inhibitor concentration range during the proliferation assay was 100 μM to 46 nM (3-fold dilution series). Plates were sealed with “Breathe Easy” oxygen permeable membranes (Diversified Biotech) and left to incubate at 37° C. without shaking (stagnant assay). OD600 nm readings were taken generally at 6-8 h, when bacteria had reached log-phase growth. A second set of baseline control plates were prepared analogously, but without any bacteria added, to correct for possible compound absorbance and/or precipitation. Plates were then read at 600 nm using a Molecular Devices SpectraMax Plus384 microplate reader. EC50 values for the test compounds were obtained by plotting the OD600 results in GraphPad Prism and analyzing by non-linear regression using the log(inhibitor) vs. response (variable slope) equation. For results, see Tables 1, 2, and 3.

[1] = HEK 293 kidney cell viability / cytotoxicity assay (Alamar Blue); type: cell-based; details: human, 48 h incubation, Alamar Blue, read-out: HEK 293 Kidney Cell Viability CC50
Protocol: Evaluating compound effects on kidney cell viability.
HEK 293 cells were maintained in MEM medium (Corning Cellgro, 10-009 CV) supplemented with 10% FBS (Sigma, F2242). […] Cells at 80% confluence were harvested and diluted in growth medium, then 45 μL of the HEK 293 cells (1,500 cells/well) were dispensed per well, and plates were sealed with “Breathe Easy” oxygen permeable membranes (Diversified Biotech) and incubated at 37° C., 5% CO2, for 24 h. […] Plates were sealed with “Breathe Easy” oxygen permeable membranes and incubated for an additional 48 h at 37° C. and 5% CO2. The Alamar Blue reporter reagents were then added to a final concentration of 10%, the plates incubated at 37° C. and 5% CO2, and sample fluorescence (535 nm excitation, 590 nm emission) was read using a Molecular Devices FlexStation II 384-well plate reader (readings taken between 4-24 h of incubation so as to achieve signals in the 30-60% range for conversion of resazurin to resorufin). Cell viability was calculated as per vendor instructions (Thermo Fisher—Alamar Blue cell viability assay manual).

SMILES	EC50 (S. aureus; Table 3)	CC50 at 48 h ([1]; HEK 293 kidney cells, Table 3)	S. aureus Proliferation EC50 (S. aureus; Table 2)	also measured
O=C(Nc1ccc(Oc2ccccc2)cc1)c1cc(Cl)ccc1O [Compound 93, 5-chloro-2-hydroxy-N-(4-phenoxyphenyl)benzamide]	360 nM	20 µM		
COc1ccc(Cl)cc1C(=O)Nc1ccc(Oc2ccc(Cl)cc2)c(Cl)c1 [Compound 86, 5-chloro-N-(3-chloro-4-(4-chlorophenoxy)phenyl)-2-methoxybenzamide]	> 100000 nM	> 100 µM		
CC(=O)Oc1ccccc1C(=O)Nc1ncc([N+](=O)[O-])s1 [Nitazoxanide, reference compound]				EC50 (S. aureus; Table 1): 12000 nM; CC50 at 48 h ([1]; HEK 293 kidney cells, Table 1): 30 µM
CC(=O)Nc1ccc(NC(=O)c2cc(Cl)ccc2O)cc1 [Compound 105, N-(4-acetamidophenyl)-5-chloro-2-hydroxybenzamide]	> 100000 nM	69 µM		
O=C(Nc1ccc(Oc2ccc(Cl)cc2)c(Cl)c1)c1cc(Cl)ccc1O [Compound 87, 5-chloro-N-(3-chloro-4-(4-chlorophenoxy)phenyl)-2-hydroxybenzamide]	170 nM			CC50 at 48 h ([1]; Table 3): 10 µM
COc1ccc(Cl)cc1C(=O)Nc1ccc(C(C#N)c2ccccc2)cc1 (centres unmarked) [Compound 84, 5-chloro-N-(4-(cyano(phenyl)methyl)phenyl)-2-methoxybenzamide]	> 100000 nM	> 100 µM		
Cc1cc(C(C#N)c2ccc(Cl)cc2)c(Cl)cc1NC(=O)c1cc(Cl)cc(Cl)c1O (centres unmarked) [Compound 52, 3,5-dichloro-N-(5-chloro-4-((4-chlorophenyl)(cyano)methyl)-2-methylphenyl)-2-hydroxybenzamide]				EC50 (S. aureus; Table 2): 270 nM; CC50 at 48 h ([1]; HEK 293 kidney cells, Table 2): 44 µM
O=C(Nc1ccccc1)c1cc(Cl)ccc1O [Compound 117, 5-chloro-2-hydroxy-N-phenylbenzamide]	2200 nM	13 µM		
Cc1cc(C(C#N)c2ccc(Cl)cc2)c(Cl)cc1NC(=O)c1ccc(F)cc1 (centres unmarked) [Compound 81, N-(5-chloro-4-((4-chlorophenyl)(cyano)methyl)-2-methylphenyl)-4-fluorobenzamide]			> 100 µM	CC50 at 48 h ([1]; Table 2): 78 µM
Cc1cc(C(C#N)c2ccc(Cl)cc2)c(Cl)cc1NC(=O)c1cccc(N)c1 (centres unmarked) [Compound 71, 3-amino-N-(5-chloro-4-((4-chlorophenyl)(cyano)methyl)-2-methylphenyl)benzamide]			> 100 µM	CC50 at 48 h ([1]; HEK 293 kidney cells, Table 2): 35 µM
COc1c(Cl)cccc1C(=O)Nc1cc(Cl)c(C(C#N)c2ccc(Cl)cc2)cc1C (centres unmarked) [Compound 53, 3-chloro-N-(5-chloro-4-((4-chlorophenyl)(cyano)methyl)-2-methylphenyl)-2-methoxybenzamide]			> 100 µM	CC50 at 48 h ([1]; HEK 293 kidney cells, Table 2): > 100 µM
Cc1cc(C(C#N)c2ccc(Cl)cc2)c(Cl)cc1NC(=O)c1ccccc1 (centres unmarked) [Compound 82, N-(5-chloro-4-((4-chlorophenyl)(cyano)methyl)-2-methylphenyl)benzamide]			> 100 µM	CC50 at 48 h ([1]; Table 2): 47 µM
COc1ccc(Br)cc1C(=O)Nc1cc(Cl)c(C(C#N)c2ccc(Cl)cc2)cc1C (centres unmarked) [Compound 49, 5-bromo-N-(5-chloro-4-((4-chlorophenyl)(cyano)methyl)-2-methylphenyl)-2-methoxybenzamide]			> 100 µM	CC50 at 48 h ([1]; Table 2): > 100 µM
N#CCc1ccc(NC(=O)c2cc(Cl)ccc2O)cc1 [Compound 111, 5-chloro-N-(4-(cyanomethyl)phenyl)-2-hydroxybenzamide]	> 100000 nM	19 µM		
O=C(Nc1ccc(OCc2ccccc2)cc1)c1cc(Cl)ccc1O [Compound 103, N-(4-(benzyloxy)phenyl)-5-chloro-2-hydroxybenzamide]	> 100000 nM	> 100 µM		
Cc1cc(C(C#N)c2ccc(Cl)cc2)c(Cl)cc1NC(=O)c1ccccc1F (centres unmarked) [Compound 79, N-(5-chloro-4-((4-chlorophenyl)(cyano)methyl)-2-methylphenyl)-2-fluorobenzamide]			> 100 µM	CC50 at 48 h ([1]; HEK 293 kidney cells, Table 2): 85 µM
Cc1cc(C(C#N)c2ccc(Cl)cc2)c(Cl)cc1NC(=O)c1cccc(Cl)c1O (centres unmarked) [Compound 54, 3-chloro-N-(5-chloro-4-((4-chlorophenyl)(cyano)methyl)-2-methylphenyl)-2-hydroxybenzamide]				EC50 (S. aureus; Table 2): 560 nM; CC50 at 48 h ([1]; Table 2): 88 µM
O=C(Nc1ccc(Sc2nc3ccccc3s2)c(Cl)c1)c1cc(Cl)ccc1O [Compound 95, N-(4-(benzo[d]thiazol-2-ylthio)-3-chlorophenyl)-5-chloro-2-hydroxybenzamide]	140 nM	83 µM		
Cc1cc(C(C#N)c2ccc(Cl)cc2)c(Cl)cc1NC(=O)c1ccc([N+](=O)[O-])cc1 (centres unmarked) [Compound 69, N-(5-chloro-4-((4-chlorophenyl)(cyano)methyl)-2-methylphenyl)-4-nitrobenzamide]			> 100 µM	CC50 at 48 h ([1]; HEK 293 kidney cells, Table 2): > 100 µM
Cc1cc(C(C#N)c2ccc(Cl)cc2)c(Cl)cc1NC(=O)c1ccccc1Cl (centres unmarked) [Compound 76, 2-chloro-N-(5-chloro-4-((4-chlorophenyl)(cyano)methyl)-2-methylphenyl)benzamide]			> 100 µM	CC50 at 48 h ([1]; Table 2): > 100 µM
COc1ccc(Cl)cc1C(=O)Nc1ccc(Sc2nc3ccccc3s2)cc1 [Compound 96, N-(4-(benzo[d]thiazol-2-ylthio)phenyl)-5-chloro-2-methoxybenzamide]	> 100000 nM	56 µM		
Cc1cc(C(C#N)c2ccc(Cl)cc2)c(Cl)cc1NC(=O)c1ccc(Cl)cc1O (centres unmarked) [Compound 56, 4-chloro-N-(5-chloro-4-((4-chlorophenyl)(cyano)methyl)-2-methylphenyl)-2-hydroxybenzamide]				EC50 (S. aureus; Table 2): 13 nM; CC50 at 48 h ([1]; Table 2): 16 µM
Cc1cc(C(C#N)c2ccc(Cl)cc2)c(Cl)cc1NC(=O)c1ccc(Br)cc1 (centres unmarked) [Compound 75, 4-bromo-N-(5-chloro-4-((4-chlorophenyl)(cyano)methyl)-2-methylphenyl)benzamide]			> 100 µM	CC50 at 48 h ([1]; HEK 293 kidney cells, Table 2): 33 µM
COc1ccc(NC(=O)c2cc(Cl)ccc2OC)cc1 [Compound 112, 5-chloro-2-methoxy-N-(4-methoxyphenyl)benzamide]	> 100000 nM	> 100 µM		
Cc1cc(C(C#N)c2ccc(Cl)cc2)c(Cl)cc1NC(=O)c1ccc(Cl)cc1 (centres unmarked) [Compound 78, 4-chloro-N-(5-chloro-4-((4-chlorophenyl)(cyano)methyl)-2-methylphenyl)benzamide]			> 100 µM	CC50 at 48 h ([1]; HEK 293 kidney cells, Table 2): 50 µM
O=C(Nc1ccc(Oc2ccccc2)c(Cl)c1)c1cc(Cl)ccc1O [Compound 91, 5-chloro-N-(3-chloro-4-phenoxyphenyl)-2-hydroxybenzamide]	210 nM			CC50 at 48 h ([1]; Table 3): 4.7 µM
Cc1cc(C(C#N)c2ccc(Cl)cc2)c(Cl)cc1NC(=O)c1cccc([N+](=O)[O-])c1 (centres unmarked) [Compound 68, N-(5-chloro-4-((4-chlorophenyl)(cyano)methyl)-2-methylphenyl)-3-nitrobenzamide]			> 100 µM	CC50 at 48 h ([1]; HEK 293 kidney cells, Table 2): > 100 µM
O=C(Nc1ccc(O)cc1)c1cc(Cl)ccc1O [Compound 115, 5-chloro-2-hydroxy-N-(4-hydroxyphenyl)benzamide]	> 100000 nM	> 100 µM		
